From ChEMBL document CHEMBL3885861, “Open TG-GATES”

Species on record: Rattus norvegicus
Test: Open TG-GATES - Regimen: Single
Type: toxicity, organism-based, Sprague-Dawley
Parameters: regimen Single, gender Male, age 6 weeks
Details: in vivo, po, route gavage; for Bas / Eos / Fbg / Hb / Ht / Lym / MCH / MCHC / MCV / Mono / Neu / PT / Plat / RBC / Ret / WBC: tissue Blood; for KIDNEY_L / KIDNEY_R / KIDNEY_TOTAL: tissue Kidney; for LIVER: tissue Liver; for ALP / ALT / AST / BUN / CRE / Ca / Cl / DBIL / GLC / IP / K / LDH / Na / PL / RALB / TBIL / TC / TG / TP / gamma-GTP: tissue Plasma
[1] = 0 mg/kg, 3 h, dose level Control
[2] = 0 mg/kg, 6 h, dose level Control
[3] = 0 mg/kg, 9 h, dose level Control
[4] = 0 mg/kg, 24 h, dose level Control

CN(C)CCCN1c2ccccc2Sc2ccc(Cl)cc21 [CHLORPROMAZINE]
TERMINAL_BW [1]: 223.8 g
Bas [1]: 0%
Eos [1]: 1.2%
Fbg [1]: 223.6 mg/dL
Hb [1]: 13.7 g/dL
Ht [1]: 39.3%
Lym [1]: 76%
MCH [1]: 21.8 pg
MCHC [1]: 34.7%
MCV [1]: 62.7 fL
Mono [1]: 2.6%
Neu [1]: 18.8%
PT [1]: 12.5 s
Plat [1]: 116.1 x10_4/uL
RBC [1]: 627.6 x10_4/ul
Ret [1]: 7.6%
WBC [1]: 91.8 x10_2/uL
KIDNEY_L [1]: 1 g
KIDNEY_R [1]: 1 g
KIDNEY_TOTAL [1]: 2 g
LIVER [1]: 10 g
ALP [1]: 1021.8 IU/L
ALT [1]: 37.6 IU/L
AST [1]: 78.8 IU/L
BUN [1]: 12.2 mg/dL
CRE [1]: 0.4 mg/dL
Ca [1]: 10.8 mg/dL
Cl [1]: 103.2 meq/L
DBIL [1]: 0.064 mg/dL
GLC [1]: 190 mg/dL
IP [1]: 8.5 mg/dL
K [1]: 4 meq/L
LDH [1]: 227.2 IU/L
Na [1]: 141.6 meq/L
PL [1]: 131.8 mg/dL
RALB [1]: 3.5 g/dL
TBIL [1]: 0.1 mg/dL
TC [1]: 67.6 mg/dL
TG [1]: 62.6 mg/dL
TP [1]: 5.5 g/dL
gamma-GTP [1]: 1 IU/L
TERMINAL_BW [2]: 217.9 g
Bas [2]: 0%
Eos [2]: 1%
Fbg [2]: 227.4 mg/dL
Hb [2]: 13.4 g/dL
Ht [2]: 38.8%
Lym [2]: 77.2%
MCH [2]: 21.1 pg
MCHC [2]: 34.5%
MCV [2]: 61.2 fL
Mono [2]: 2.8%
Neu [2]: 17.4%
PT [2]: 12.5 s
Plat [2]: 113.2 x10_4/uL
RBC [2]: 634 x10_4/ul
Ret [2]: 7.6%
WBC [2]: 104.6 x10_2/uL
KIDNEY_L [2]: 1 g
KIDNEY_R [2]: 1 g
KIDNEY_TOTAL [2]: 1.9 g
LIVER [2]: 9.2 g
ALP [2]: 816 IU/L
ALT [2]: 33.6 IU/L
AST [2]: 79.8 IU/L
BUN [2]: 9 mg/dL
CRE [2]: 0.4 mg/dL
Ca [2]: 10.7 mg/dL
Cl [2]: 103.4 meq/L
DBIL [2]: 0.066 mg/dL
GLC [2]: 190 mg/dL
IP [2]: 9.4 mg/dL
K [2]: 3.9 meq/L
LDH [2]: 221.2 IU/L
Na [2]: 141.8 meq/L
PL [2]: 133.6 mg/dL
RALB [2]: 3.4 g/dL
TBIL [2]: 0.1 mg/dL
TC [2]: 75.8 mg/dL
TG [2]: 56.2 mg/dL
TP [2]: 5.4 g/dL
gamma-GTP [2]: 0.8 IU/L
TERMINAL_BW [3]: 219.8 g
Bas [3]: 0.4%
Eos [3]: 0.6%
Fbg [3]: 227 mg/dL
Hb [3]: 13.2 g/dL
Ht [3]: 38.2%
Lym [3]: 78.8%
MCH [3]: 21.7 pg
MCHC [3]: 34.5%
MCV [3]: 63 fL
Mono [3]: 2.6%
Neu [3]: 16.6%
PT [3]: 12.6 s
Plat [3]: 122.8 x10_4/uL
RBC [3]: 606.2 x10_4/ul
Ret [3]: 8.3%
WBC [3]: 82.3 x10_2/uL
KIDNEY_L [3]: 1 g
KIDNEY_R [3]: 1 g
KIDNEY_TOTAL [3]: 2 g
LIVER [3]: 9 g
ALP [3]: 922.2 IU/L
ALT [3]: 30.6 IU/L
AST [3]: 68 IU/L
BUN [3]: 11.4 mg/dL
CRE [3]: 0.4 mg/dL
Ca [3]: 10.7 mg/dL
Cl [3]: 104 meq/L
DBIL [3]: 0.066 mg/dL
GLC [3]: 203.4 mg/dL
IP [3]: 10.2 mg/dL
K [3]: 3.8 meq/L
LDH [3]: 180.2 IU/L
Na [3]: 141.8 meq/L
PL [3]: 132.6 mg/dL
RALB [3]: 3.3 g/dL
TBIL [3]: 0.1 mg/dL
TC [3]: 69.8 mg/dL
TG [3]: 59.2 mg/dL
TP [3]: 5.4 g/dL
gamma-GTP [3]: 1 IU/L
TERMINAL_BW [4]: 233.7 g
Bas [4]: 0.8%
Eos [4]: 1.2%
Fbg [4]: 230.4 mg/dL
Hb [4]: 13 g/dL
Ht [4]: 38.5%
Lym [4]: 79%
MCH [4]: 21.2 pg
MCHC [4]: 33.8%
MCV [4]: 62.8 fL
Mono [4]: 3%
Neu [4]: 15.8%
PT [4]: 11.7 s
Plat [4]: 133.9 x10_4/uL
RBC [4]: 613.8 x10_4/ul
Ret [4]: 7.4%
WBC [4]: 115.9 x10_2/uL
KIDNEY_L [4]: 1 g
KIDNEY_R [4]: 1 g
KIDNEY_TOTAL [4]: 2 g
LIVER [4]: 10.7 g
ALP [4]: 1074.4 IU/L
ALT [4]: 34.8 IU/L
AST [4]: 73.8 IU/L
BUN [4]: 16 mg/dL
CRE [4]: 0.5 mg/dL
Ca [4]: 10.8 mg/dL
Cl [4]: 103.8 meq/L
DBIL [4]: 0.058 mg/dL
GLC [4]: 203 mg/dL
IP [4]: 7 mg/dL
K [4]: 4 meq/L
LDH [4]: 192.2 IU/L
Na [4]: 141.2 meq/L
PL [4]: 140 mg/dL
RALB [4]: 3.4 g/dL
TBIL [4]: 0.1 mg/dL
TC [4]: 78.6 mg/dL
TG [4]: 80.2 mg/dL
TP [4]: 5.6 g/dL
gamma-GTP [4]: 1 IU/L
TERMINAL_BW (45 mg/kg, 3 h, dose level Low): 220 g
Bas (45 mg/kg, 3 h, dose level Low): 0%
Eos (45 mg/kg, 3 h, dose level Low): 1%
Fbg (45 mg/kg, 3 h, dose level Low): 221.8 mg/dL
Hb (45 mg/kg, 3 h, dose level Low): 12.5 g/dL
Ht (45 mg/kg, 3 h, dose level Low): 36.7%
Lym (45 mg/kg, 3 h, dose level Low): 79.4%
MCH (45 mg/kg, 3 h, dose level Low): 21 pg
MCHC (45 mg/kg, 3 h, dose level Low): 33.9%
MCV (45 mg/kg, 3 h, dose level Low): 61.9 fL
Mono (45 mg/kg, 3 h, dose level Low): 2.2%
Neu (45 mg/kg, 3 h, dose level Low): 17%
PT (45 mg/kg, 3 h, dose level Low): 12.1 s
Plat (45 mg/kg, 3 h, dose level Low): 127.9 x10_4/uL
RBC (45 mg/kg, 3 h, dose level Low): 594 x10_4/ul
Ret (45 mg/kg, 3 h, dose level Low): 7.8%
WBC (45 mg/kg, 3 h, dose level Low): 55.8 x10_2/uL
KIDNEY_L (45 mg/kg, 3 h, dose level Low): 0.9 g
KIDNEY_R (45 mg/kg, 3 h, dose level Low): 0.9 g
KIDNEY_TOTAL (45 mg/kg, 3 h, dose level Low): 1.8 g
LIVER (45 mg/kg, 3 h, dose level Low): 10.3 g
ALP (45 mg/kg, 3 h, dose level Low): 910.4 IU/L
ALT (45 mg/kg, 3 h, dose level Low): 31.6 IU/L
AST (45 mg/kg, 3 h, dose level Low): 66.4 IU/L
BUN (45 mg/kg, 3 h, dose level Low): 10.2 mg/dL
CRE (45 mg/kg, 3 h, dose level Low): 0.4 mg/dL
Ca (45 mg/kg, 3 h, dose level Low): 10.9 mg/dL
Cl (45 mg/kg, 3 h, dose level Low): 105.6 meq/L
DBIL (45 mg/kg, 3 h, dose level Low): 0.066 mg/dL
GLC (45 mg/kg, 3 h, dose level Low): 244.4 mg/dL
IP (45 mg/kg, 3 h, dose level Low): 10.2 mg/dL
K (45 mg/kg, 3 h, dose level Low): 3.8 meq/L
LDH (45 mg/kg, 3 h, dose level Low): 210 IU/L
Na (45 mg/kg, 3 h, dose level Low): 144.8 meq/L
PL (45 mg/kg, 3 h, dose level Low): 151 mg/dL
RALB (45 mg/kg, 3 h, dose level Low): 3.5 g/dL
TBIL (45 mg/kg, 3 h, dose level Low): 0.1 mg/dL
TC (45 mg/kg, 3 h, dose level Low): 77.8 mg/dL
TG (45 mg/kg, 3 h, dose level Low): 77 mg/dL
TP (45 mg/kg, 3 h, dose level Low): 5.4 g/dL
gamma-GTP (45 mg/kg, 3 h, dose level Low): 1 IU/L
TERMINAL_BW (45 mg/kg, 6 h, dose level Low): 214.5 g
Bas (45 mg/kg, 6 h, dose level Low): 0.2%
Eos (45 mg/kg, 6 h, dose level Low): 1%
Fbg (45 mg/kg, 6 h, dose level Low): 221.8 mg/dL
Hb (45 mg/kg, 6 h, dose level Low): 12.5 g/dL
Ht (45 mg/kg, 6 h, dose level Low): 36.9%
Lym (45 mg/kg, 6 h, dose level Low): 69.4%
MCH (45 mg/kg, 6 h, dose level Low): 21 pg
MCHC (45 mg/kg, 6 h, dose level Low): 34%
MCV (45 mg/kg, 6 h, dose level Low): 62 fL
Mono (45 mg/kg, 6 h, dose level Low): 2.2%
Neu (45 mg/kg, 6 h, dose level Low): 26%
PT (45 mg/kg, 6 h, dose level Low): 12 s
Plat (45 mg/kg, 6 h, dose level Low): 129.9 x10_4/uL
RBC (45 mg/kg, 6 h, dose level Low): 596.2 x10_4/ul
Ret (45 mg/kg, 6 h, dose level Low): 8.2%
WBC (45 mg/kg, 6 h, dose level Low): 48 x10_2/uL
KIDNEY_L (45 mg/kg, 6 h, dose level Low): 1 g
KIDNEY_R (45 mg/kg, 6 h, dose level Low): 0.9 g
KIDNEY_TOTAL (45 mg/kg, 6 h, dose level Low): 1.9 g
LIVER (45 mg/kg, 6 h, dose level Low): 9.4 g
ALP (45 mg/kg, 6 h, dose level Low): 861 IU/L
ALT (45 mg/kg, 6 h, dose level Low): 29.6 IU/L
AST (45 mg/kg, 6 h, dose level Low): 68.4 IU/L
BUN (45 mg/kg, 6 h, dose level Low): 8.6 mg/dL
CRE (45 mg/kg, 6 h, dose level Low): 0.4 mg/dL
Ca (45 mg/kg, 6 h, dose level Low): 10.5 mg/dL
Cl (45 mg/kg, 6 h, dose level Low): 106.4 meq/L
DBIL (45 mg/kg, 6 h, dose level Low): 0.07 mg/dL
GLC (45 mg/kg, 6 h, dose level Low): 249.6 mg/dL
IP (45 mg/kg, 6 h, dose level Low): 10.8 mg/dL
K (45 mg/kg, 6 h, dose level Low): 3.6 meq/L
LDH (45 mg/kg, 6 h, dose level Low): 219.6 IU/L
Na (45 mg/kg, 6 h, dose level Low): 144.8 meq/L
PL (45 mg/kg, 6 h, dose level Low): 138.2 mg/dL
RALB (45 mg/kg, 6 h, dose level Low): 3.4 g/dL
TBIL (45 mg/kg, 6 h, dose level Low): 0.1 mg/dL
TC (45 mg/kg, 6 h, dose level Low): 79.2 mg/dL
TG (45 mg/kg, 6 h, dose level Low): 19.2 mg/dL
TP (45 mg/kg, 6 h, dose level Low): 5.4 g/dL
gamma-GTP (45 mg/kg, 6 h, dose level Low): 1 IU/L
